# Measurements as given in patent publication US20240131028A1, “CHEMOVACCINATION AGAINST PLASMODIUM INFECTION WITH SELECTIVE PLASMEPSIN X INHIBITORS” (Merck Sharp & Dohme LLC, priority 2021, published 2024).
# Test system: ring stage parasites (Pf)
# Test: Parasite lactate dehydrogenase (LDH) growth assay (Parasite Assay, PfLDH Assay)
# Type: cell-based, P. falciparum
# Conditions: Plasmodium falciparum, 72 h, Table 3; 72 hours growth, LDH readout; read-out: EC50
row,SMILES,EC50
1,CCC1(CC)CC(=O)N([C@H](CCOC)[C@H]2C[C@@H]2C(=O)N[C@H]2CC(C)(C)Oc3ccccc32)C(=N)N1 [Example 1A],0.001 µM
2,COCC[C@H]([C@H]1C[C@@H]1C(=O)N[C@@H]1CC(C)(C)Oc2cccc(OC)c21)N1C(=N)NC(C)(C)CC1=O [Example 74A],0.033 µM
3,CC1(C)CC(=O)N(C[C@H]2C[C@@H]2C(=O)N[C@H]2CC(C)(C)Oc3cccc(F)c32)C(=N)N1 [Example 87],0.16 µM
4,COCC[C@H]([C@H]1C[C@@H]1C(=O)N[C@H]1CC(C)(C)Oc2ccc(C)cc21)N1C(=N)NC(C)(C)CC1=O [Example 132],0.0067 µM
5,CCC1(CC)CC(=O)N(C[C@H]2C[C@@H]2C(=O)N[C@@H]2CC(C)(C)Oc3ccc(F)cc32)C(=N)N1 [Example 7B],0.029 µM
6,CC1(C)CC(=O)N([C@@H](c2cccnc2)[C@@H]2[C@@H](C(=O)N[C@H]3C[C@H](C(F)(F)F)Oc4ccccc43)C2(C)C)C(=N)N1 [Example 43B],0.037 µM
7,CC1(C)CC(=O)N([C@@H](c2cncc(Cl)c2)[C@H]2C[C@@H]2C(=O)N[C@H]2CC(C)(C)Oc3ccccc32)C(=N)N1 [Example 58A],0.21 µM
8,COCC[C@H]([C@H]1C[C@@H]1C(=O)N[C@H]1CC(C)(C)Oc2c(F)cc(F)cc21)N1C(=N)NC(C)(C)CC1=O [Example 113B],0.0075 µM
9,CC[C@]1(C)CC(=O)N([C@@H](CCOC)[C@H]2C[C@@H]2C(=O)N[C@H]2CC(C)(C)Oc3ccccc32)C(=N)N1 [Example 64B],0.195 µM
10,COc1cncc([C@H]([C@H]2C[C@@H]2C(=O)N[C@H]2CC(C)(C)Oc3ccccc32)N2C(=N)NC(C)(C)CC2=O)c1 [Example 40],0.0031 µM
11,CC[C@@]1(C)CC(=O)N(C(c2cncc(F)c2)[C@H]2C[C@@H]2C(=O)N[C@H]2CC(C)(C)Oc3ccccc32)C(=N)N1 (stereo partly drawn) [Example 67A],0.0009 µM
12,COCC[C@H]([C@H]1C[C@@H]1C(=O)NC1CC(C)(C)Oc2c(F)cccc21)N1C(=N)NC(C)(C)CC1=O (stereo partly drawn) [Example 111A],0.024 µM
13,COCC[C@H]([C@H]1C[C@@H]1C(=O)N[C@@H]1CC(C)(C)Oc2cccc(Cl)c21)N1C(=N)NC(C)(C)CC1=O [Example 116B],0.018 µM
14,CC1(C)CC(=O)N([C@H](c2cccnc2)[C@H]2C[C@@H]2C(=O)N[C@@H]2CC(C)(C)Oc3cccc(F)c32)C(=N)N1 [Example 86A],0.0022 µM
15,COCC[C@H]([C@H]1C[C@@H]1C(=O)N[C@@H]1C[C@@H](C(F)(F)F)Oc2ccccc21)N1C(=N)N[C@](C)(C(C)C)CC1=O [Example 21B],0.001 µM
16,CCC1(CC)CC(=O)N([C@H](CCOC)[C@H]2C[C@@H]2C(=O)N[C@@H]2CC(C)(C)Oc3ccccc32)C(=N)N1 [Example 1B],0.25 µM
17,COCC[C@H]([C@H]1C[C@@H]1C(=O)N[C@H]1CC(C)(C)Oc2c(C(F)(F)F)ccc(F)c21)N1C(=N)NC(C)(C)CC1=O [Example 114B],0.0051 µM

# Same assay, conditions: Plasmodium falciparum, 72 h, Table 4; 72 hours growth, LDH readout; read-out: EC50 (Table 4)
row,SMILES,EC50
1,CCC1(CC)CC(=O)N([C@H](CCOC)[C@H]2C[C@@H]2C(=O)NC2CC(C)(C)Oc3c(Cl)cccc32)C(=N)N1 (stereo partly drawn) [Example 148A],0.0027 µM

# Same assay, conditions: Table 3; 72 hours growth, LDH readout; read-out: EC50
row,SMILES,EC50
1,CC1(C)CC(=O)N([C@H](c2cccnc2)[C@H]2C[C@@H]2C(=O)NC2CC(C)(C)Oc3c(F)cc(F)cc32)C(=N)N1 (stereo partly drawn) [Example 122B],0.0022 µM
2,CCC1(CC)CC(=O)N(C[C@H]2C[C@@H]2C(=O)N[C@H]2c3ccccc3C[C@@H]2O)C(=N)N1 [Example 6B],0.269 µM
3,COCC[C@H]([C@H]1C[C@@H]1C(=O)NC1CC(C)(C)Oc2cc(F)ccc21)N1C(=N)NC(C)(C)CC1=O (stereo partly drawn) [Example 76B],0.015 µM
4,"CC[C@]1(C)CC(=O)N(C(c2cncc(F)c2)[C@H]2C[C@@H]2C(=O)N[C@@H]2c3ccccc3OC(C)(C)C2(C)O)C(=N)N1 (single isomer, unassigned) [Example 103B]",0.0021 µM
5,"COCC[C@H]([C@H]1C[C@@H]1C(=O)NC1CC(C)(COC)Oc2ccccc21)N1C(=N)NC(C)(C)CC1=O (single isomer, unassigned) [Example 82C]",0.053 µM
6,"COCC[C@H]([C@H]1C[C@@H]1C(=O)NC1CC(C)(C(C)C)Oc2ccccc21)N1C(=N)NC(C)(C)CC1=O (single isomer, unassigned) [Example 80C]",0.014 µM
